Data reported in ChEMBL document CHEMBL1140113, “Structural requirements for drug inhibition of the liver specific human organic cation transport protein 1” (J Med Chem, 2008).

T1: Solute carrier family 22 member 1 (Homo sapiens, UniProt O15245)
T1 sequence (O15245 whole entry): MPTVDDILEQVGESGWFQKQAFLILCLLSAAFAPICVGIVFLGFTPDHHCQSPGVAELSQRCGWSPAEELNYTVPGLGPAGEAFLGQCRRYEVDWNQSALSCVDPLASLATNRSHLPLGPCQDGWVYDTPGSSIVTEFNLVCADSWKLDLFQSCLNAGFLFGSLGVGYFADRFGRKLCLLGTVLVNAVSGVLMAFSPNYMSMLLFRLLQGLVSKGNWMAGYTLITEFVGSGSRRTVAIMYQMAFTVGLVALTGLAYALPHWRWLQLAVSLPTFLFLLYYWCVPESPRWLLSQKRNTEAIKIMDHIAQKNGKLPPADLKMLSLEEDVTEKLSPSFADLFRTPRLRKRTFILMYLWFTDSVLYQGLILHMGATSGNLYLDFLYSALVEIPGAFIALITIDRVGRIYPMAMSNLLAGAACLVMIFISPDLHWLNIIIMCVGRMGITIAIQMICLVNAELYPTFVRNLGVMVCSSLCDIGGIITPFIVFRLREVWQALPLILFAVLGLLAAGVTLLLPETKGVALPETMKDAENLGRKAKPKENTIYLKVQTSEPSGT

T2: OCT1 (SLC22A1) (Homo sapiens, UniProt O15245)
T2 sequence (O15245 whole entry): T1 sequence (O15245 whole entry)

B1: Solute carrier family 22 member 1 (Homo sapiens) (protein)
chain: T1 sequence (O15245 whole entry)

Tests used:
[1] = molecular target: T1, Solute carrier family 22 member 1; assay type: cell-based, HEK293
OCT1 (SLC22A1) [2] = molecular target: T2, OCT1 (SLC22A1); test: in vitro
OCT1 (SLC22A1) [3] = molecular target: T2, OCT1 (SLC22A1); test: Inhibition of 4-(4-(dimethylamino)styryl)-N-methylpyridinium uptake at human OCT1 expressed in HEK293 cells at 10 uM by confocal microscopy; assay type: cell-based; conditions: HEK293 cells that express human OCT1, probe 4-(4-(dimethylamino)styryl)-N-methylpyridinium
not read = substrate: CC[N+](CC)(CC)CC; test: not read
[4] = HEK293 cells that express human OCT1, probe 4-(4-(dimethylamino)styryl)-N-methylpyridinium

Molecule	IC50 [1] [µM]	inhibition at 100 µM (OCT1 (SLC22A1) [2]; [4]) [%]	inhibition at 100 µM (OCT1 (SLC22A1) [2]; hek293) [%]	inhibition at 10 µM (OCT1 (SLC22A1) [3]) [%]	Km (not read) [µM]
CN(C)CCCN1c2ccccc2CCc2ccc(Cl)cc21 [CLOMIPRAMINE]	19.3	85.3	–	–	–
Clc1cccc(Cl)c1N=C1NCCN1 [CLONIDINE]	22.6	–	65.4	–	–
COc1ccc(CCNC[C@H](O)c2ccc(O)cc2)cc1OC [DENOPAMINE]	46.9	–	51.5	–	–
CNCCCN1c2ccccc2CCc2ccccc21 [DESIPRAMINE]	56.8	–	84.3	–	–
COc1ccc([C@@H]2Sc3ccccc3N(CCN(C)C)C(=O)[C@@H]2OC(C)=O)cc1 [DILTIAZEM]	12.4	65.5	–	–	–
OCCN1CCN(CCCN2c3ccccc3Sc3ccc(C(F)(F)F)cc32)CC1 [FLUPHENAZINE]	110	61.9	–	–	–
O=C(CCCN1CCC(O)(c2ccc(Cl)cc2)CC1)c1ccc(F)cc1 [HALOPERIDOL]	142	67.1	–	–	–
CN(C)CCCN1c2ccccc2CCc2ccccc21 [IMIPRAMINE]	17.1	–	82.8	–	–
CN(C)C(=O)C(CCN1CCC(O)(c2ccc(Cl)cc2)CC1)(c1ccccc1)c1ccccc1 [LOPERAMIDE]	23.7	–	73.4	–	–
CC12CC3CC(C)(C1)CC(N)(C3)C2 [MEMANTINE]	27.2	58.6	–	–	–
C[N+]1(C)CCCC(OC(=O)C(O)(c2ccccc2)c2ccccc2)C1 (stereo unspecified) [MEPENZOLATE BROMIDE]	64.9	59.5	–	–	–
CCN(CC)CCNC(=O)c1cc(Cl)c(N)cc1OC [METOCLOPRAMIDE]	94.8	52.3	–	–	–
CN1CC[C@]23c4c5ccc(O)c4O[C@H]2[C@@H](O)C=C[C@H]3[C@H]1C5 [MORPHINE]	28	67.9	–	–	–
C[C@]12CC[C@H]3[C@@H](CCC4=CC(=O)CC[C@@H]43)[C@@H]1CC[C@@H]2O [NANDROLONE]	35.1	–	79.3	–	–
Cc1nccn1CC1CCc2c(c3ccccc3n2C)C1=O (stereo unspecified) [ONDANSETRON]	20.4	–	63.8	–	–
C=CCOc1ccccc1OCC(O)CNC(C)C (stereo unspecified) [OXPRENOLOL]	28.6	–	61.5	–	–
CC(COc1ccccc1)N(CCCl)Cc1ccccc1 (stereo unspecified) [PHENOXYBENZAMINE]	15.1	56.7	–	–	–
COc1cc2nc(N3CCN(C(=O)c4ccco4)CC3)nc(N)c2cc1OC [PRAZOSIN]	9.9	–	55.6	55.6	–
CN1CCN(CCCN2c3ccccc3Sc3ccc(Cl)cc32)CC1 [PROCHLORPERAZINE]	49.6	66.5	–	–	–
CN(C)CCCN1c2ccccc2Sc2ccccc21 [PROMAZINE]	17.2	79.2	–	–	–
CC(CN1c2ccccc2Sc2ccccc21)N(C)C (stereo unspecified) [PROMETHAZINE]	35.1	71.1	–	–	–
CCCNCC(O)COc1ccccc1C(=O)CCc1ccccc1 (stereo unspecified) [PROPAFENONE]	11.1	83.8	–	–	–
CC(C)NCC(O)COc1cccc2ccccc12 (stereo unspecified) [PROPRANOLOL]	63.2	55.4	–	–	–
CCOc1cc(CC(=O)N[C@@H](CC(C)C)c2ccccc2N2CCCCC2)ccc1C(=O)O [REPAGLINIDE]	9.2	76.4	–	–	–
COc1cc2nc(N3CCN(C(=O)C4CCCO4)CC3)nc(N)c2cc1OC (stereo unspecified) [TERAZOSIN]	23.7	77	–	–	–
COc1cccc(C2(O)CCCCC2CN(C)C)c1 (stereo unspecified) [TRAMADOL]	52.5	60.2	–	–	–
CC(CN(C)C)CN1c2ccccc2CCc2ccccc21 (stereo unspecified) [TRIMIPRAMINE]	27.7	77.2	–	–	–
B1	–	–	–	–	2.32
